This note sets out measurements from patent publication US4138482A, “3-Cyano-N-(N,N-dimethylaminopropyl)-iminodibenzyl and salts thereof” (Hoffmann-La Roche Inc., priority 1976, dated 1979).

Data set [1] has as its system serotonin uptake in the synaptosomes of the forebrain of rats. Kind of data set: Inhibition of the serotonin uptake in vitro (synaptosomes of the forebrain of rats). The conditions noted are these: for IC50: synaptosomes of the forebrain of rats, read-out: ED50 (inhibition of 50%) of serotonin uptake in vitro. It counts as biochemical, rat. The method, then: 1. Inhibition of the serotonin uptake in vitro
(§1) The uptake of serotonin in the synaptosomes of the forebrain of rats was tested according to J. Pharmacol. exp.

Data set [2] shares this test system. Kind of data set: Inhibition of the serotonin uptake ex vivo. The data set is classed as in vivo, rat. As to conditions: for ED50: Rattus norvegicus, ip, injected intraperitoneally, serotonin uptake measured after 1 hour, rats. The method, then:
as §1
2. Inhibition of the serotonin uptake ex vivo
An analogous experimental procedure to that given under 1 was utilized. The test substances were, however, injected intraperitoneally; the serotonin uptake was measured after 1 hour. Untreated rats were used as the controls.

Data set [3] concerns serotonin re-uptake ("membrane pump"). The experiment in a line: Inhibition of the serotonin re-uptake in vivo (action of the "membrane pump"). Also noted: species or system rat. As to conditions: for ED50: Rattus norvegicus, "membrane pump", Biochem. Pharmacol. 20, 707, 1971.
For data set [4], the system named is serotonin uptake in blood platelets of the rat. Kind of data set: Inhibition of the serotonin uptake in vivo (blood platelets). The conditions noted are these: ip; for inhibition at 5 mg/kg: Rattus norvegicus, Platelet, 5.0 mg/kg intraperitoneally twice daily over 4 days, 12 hours after last administration, read-out: Inhibition in % of the control; for Serotonin in mmol/mg. of protein: 5 mg/kg. The protocol: 5. Inhibition of the serotonin uptake in vivo
Rats were given twice daily over a period of 4 days an intraperitoneal injection of 5.0 mg. of test substance per kg. and 12 hours after the last administration the rats were killed. Serotonin was determined spectrofluorimetrically as described in J. Pharmacol. exp.

Another data set can be described thus: Solubility. It counts as physicochemical. The conditions noted are these: free base.
Data set [5] concerns neuronal serotonin uptake. The experiment in a line: Antidepressive activity / inhibition of the neuronal serotonin uptake in animal experiments. The data set is classed as in vivo. From the text:
The compound of formula I and its pharmaceutically acceptable acid addition salts, are therefore useful, for example, for the treatment of depressions of endogenous or exogenous origin. More specifically, they are useful as antidepressants.

Data set [6] is described as follows: Anticholinergic side-effects. As to conditions: for example mouth dryness, constipation, tachycardia and/or accommodation disorders.
Data set [7] has as its system serotonin uptake in blood platelets of the rat. The experiment in a line: Inhibition of the serotonin uptake in vitro (blood platelets). The data set is classed as cell-based. The method, then:
4. Inhibition of the serotonin uptake in vitro
0.5 Ml. of blood plasma was treated with different concentrations of test substance in 50 μl of physiological sodium chloride solution. After incubating at 37° C. for 5 minutes, serotonin (C^14; 0.1 μM) was added and the mixture was incubated at 37° C. for an additional 5 minutes. The serotonin concentration was determined by means of a C^14 measuring apparatus. A control experiment in which no test substance is used was also carried out.

Structures can show the parent of a compound that is named as a salt.

On to `CN(C)CCCN1c2ccccc2CCc2ccccc21` [Substance B, N-(N,N-Dimethylaminopropyl)-iminodibenzyl hydrochloride, reference compound], for which the IC50 in data set [1] came out at 78 nM. The ED50 was 19 mg/kg in data set [2] and 12.8 mg/kg in data set [3]. For the same compound, in data set [4], the inhibition at 5 mg/kg stood at 14%. For the same compound, in data set [4], the “Serotonin in mmol/mg. of protein” value is recorded as 9.72 ± 2.12 mmol/mg. of protein.

`CN(C)CCCN1c2ccccc2CCc2ccc(C#N)cc21` [3-cyano-N-(N,N-dimethylaminopropyl)-iminodibenzyl]: the “solubility in organic solvents” value in “Solubility” (dimethylsulfoxide, dimethylformamide, chlorinated hydrocarbons (chloroform, methylene chloride), alkanols (methanol, ethanol), ether and benzene) is “relatively good solubility”. Moreover, the solubility in water entry in the data set “Solubility” (water) is “soluble in water with relative difficulty”. Further, in data set [5], the antidepressive activity entry was “strong antidepressive activity” and the “inhibition of the neuronal serotonin uptake” value was “extraordinarily strong inhibition of the neuronal serotonin uptake”. Moreover, the anticholinergic side-effects result in data set [6] was “confined to a minimum”.

`CN(C)CCCN1c2ccccc2CCc2ccc(C#N)cc21` [Substance A, 3-Cyano-N-(N,N-dimethylaminopropyl)-iminodibenzyl hydrochloride]: the IC50 in data set [1] is 1.5 nM. Also, the “times greater activity than substance B” value in data set [1] (versus known substance B, synaptosomes) is given as 52 times; in data set [7] (versus known substance B), 130 times. The “times greater activity than substance C” value in data set [1] (versus known substance C, synaptosomes) worked out at 4.2 times; in data set [7] (versus known substance C), 20 times. Further, the ED50 is 0.9 mg/kg in data set [2] and 0.7 mg/kg in data set [3]. The “as active as substance B in times smaller doses” value in data set [2] (versus known substance B, ex vivo) stood at 21 times; in data set [3] (versus known substance B, in vivo re-uptake) it was 18 times. In addition, the “as active as substance C in times smaller doses” value amounted to 2.4 times in data set [2] (versus known substance C, ex vivo) and 9 times in data set [3] (versus known substance C, in vivo re-uptake). The inhibition at 5 mg/kg in data set [4] turned out to be 61%. In addition, the “Serotonin in mmol/mg. of protein” value in data set [4] is on record as 4.09 ± 1.30 mmol/mg. of protein.
